Measurements taken from patent US20160002247A1, “8-SUBSTITUTED IMIDAZOPYRIMIDINONE DERIVATIVE HAVING AUTOTAXIN INHIBITORY ACTIVITY” (THE UNIVERSITY OF TOKYO, priority 2013, published 2016).

Target: T1, Human autotaxin enzyme (Homo sapiens, UniProt Q13822)
T1 construct: purchased R&D System
Assay: Evaluation of autotaxin inhibitor, Method C (Test Example 3): 18:0 Lyso PC, choline assay, Resorufin fluorescence
Type: biochemical
Details: Assay Method C (Test Example 3), human autotaxin, 18:0 Lyso PC substrate; read-out: Inhibitory Activity (autotaxin enzyme inhibitory activity, IC50 class)
Procedure, shortened: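 Choline-coupled fluorescence readout (20 min, resorufin at 531/598 nm) followed a 2 h room-temperature reaction of human autotaxin with 18:0 Lyso PC substrate (added as 200 μM solution) in pH 7.5 Tris buffer containing MgCl2 and Triton X-100. Percent inhibition scaled to no-compound (0%) and no-enzyme (100%) wells and plotted versus concentration.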

IC50	SMILES
< 0.01 µM	CCCCCn1c(N(Cc2ccc(C(=O)O)cc2)C(C)=O)cc(=O)n2cc(-c3ccc(Cl)cc3)nc12 [Compound 569]
< 0.01 µM	CCCCCn1c(OC2CN(CCC(=O)O)C2)cc(=O)n2cc(-c3ccc(Cl)cc3)nc12 [Compound 570]
0.1 to 1 µM	CCCCCn1c(N2CCC[C@H]2C(=O)NCC(C)C(=O)OC)cc(=O)n2cc(-c3ccc(Cl)cc3)nc12 (stereo partly shown) [Compound 571]
0.01 to 0.1 µM	CCCCCn1c(O[C@H]2CCNC2)cc(=O)n2cc(-c3ccc(Cl)cc3)nc12 [Compound 572]
0.01 to 0.1 µM	CCCCCn1c(O[C@H]2CCN(CC(=O)OC(C)(C)C)C2)cc(=O)n2cc(-c3ccc(Cl)cc3)nc12 [Compound 573]
0.01 to 0.1 µM	CCCCCn1c(OC2CN(CC(=O)OC(C)(C)C)C2)cc(=O)n2cc(-c3ccc(Cl)cc3)nc12 [Compound 574]
0.01 to 0.1 µM	CCCCCn1c(O[C@H]2CCN(CC(=O)O)C2)cc(=O)n2cc(-c3ccc(Cl)cc3)nc12 [Compound 575]
0.01 to 0.1 µM	CCCCCn1c(O[C@H]2CCN(CCC(=O)O)C2)cc(=O)n2cc(-c3ccc(Cl)cc3)nc12 [Compound 576]
< 0.01 µM	CCCCCn1c(OC2CN(CC(=O)O)C2)cc(=O)n2cc(-c3ccc(Cl)cc3)nc12 [Compound 577]
0.01 to 0.1 µM	CCCCCn1c(O[C@H]2CCN(CCC(=O)OC(C)(C)C)C2)cc(=O)n2cc(-c3ccc(Cl)cc3)nc12 [Compound 578]
0.01 to 0.1 µM	CCCCCn1c(N2C[C@H](F)C[C@H]2C(=O)NCCC(=O)O)cc(=O)n2cc(-c3ccc(Cl)cc3)nc12 [Compound 579]
< 0.01 µM	CCCCCn1c(N2C[C@@H](F)C[C@H]2C(=O)NCCC(=O)O)cc(=O)n2cc(-c3ccc(Cl)cc3)nc12 [Compound 580]
< 0.01 µM	CCCCCn1c(N2C[C@H](O)C[C@H]2C(=O)NCCC(=O)O)cc(=O)n2cc(-c3ccc(Cl)cc3)nc12 [Compound 581]
< 0.01 µM	CCCCCn1c(N2C[C@@H](O)C[C@H]2C(=O)NCCC(=O)O)cc(=O)n2cc(-c3ccc(Cl)cc3)nc12 [Compound 582]
< 0.01 µM	CCCCCn1c(N2C[C@H](F)C[C@H]2C(=O)NC(C)(C)CC(=O)O)cc(=O)n2cc(-c3ccc(Cl)cc3)nc12 [Compound 583]
< 0.01 µM	CCCCCn1c(N2C[C@@H](F)C[C@H]2C(=O)NC(C)(C)CC(=O)O)cc(=O)n2cc(-c3ccc(Cl)cc3)nc12 [Compound 584]
< 0.01 µM	CCCCCn1c(N2C[C@H](O)C[C@H]2C(=O)NC(C)(C)CC(=O)O)cc(=O)n2cc(-c3ccc(Cl)cc3)nc12 [Compound 585]
< 0.01 µM	CCCCCn1c(N2C[C@@H](O)C[C@H]2C(=O)NC(C)(C)CC(=O)O)cc(=O)n2cc(-c3ccc(Cl)cc3)nc12 [Compound 586]
> 1 µM	CCCCCn1c(N2C[C@H](F)C[C@H]2C(=O)O)cc(=O)n2cc(-c3ccc(Cl)cc3)nc12 [Compound 587]
0.1 to 1 µM	CCCCCn1c(N2C[C@@H](F)C[C@H]2C(=O)O)cc(=O)n2cc(-c3ccc(Cl)cc3)nc12 [Compound 588]
> 1 µM	CCCCCn1c(N2C[C@H](O)C[C@H]2C(=O)O)cc(=O)n2cc(-c3ccc(Cl)cc3)nc12 [Compound 589]
0.1 to 1 µM	CCCCCn1c(N2C[C@@H](O)C[C@H]2C(=O)O)cc(=O)n2cc(-c3ccc(Cl)cc3)nc12 [Compound 590]
0.1 to 1 µM	CCCCCn1c(N2C[C@H](F)C[C@H]2C(=O)NCCC(=O)OCC)cc(=O)n2cc(-c3ccc(Cl)cc3)nc12 [Compound 591]

IC50	SMILES
0.01 to 0.1 µM	CCCCCn1c(N2C[C@@H](F)C[C@H]2C(=O)NCCC(=O)OCC)cc(=O)n2cc(-c3ccc(Cl)cc3)nc12 [Compound 592]
0.01 to 0.1 µM	CCCCCn1c(N2C[C@H](O)C[C@H]2C(=O)NCCC(=O)OCC)cc(=O)n2cc(-c3ccc(Cl)cc3)nc12 [Compound 593]
0.01 to 0.1 µM	CCCCCn1c(N2C[C@@H](O)C[C@H]2C(=O)NCCC(=O)OCC)cc(=O)n2cc(-c3ccc(Cl)cc3)nc12 [Compound 594]
0.1 to 1 µM	CCCCCn1c(N2C[C@H](F)C[C@H]2C(=O)NC(C)(C)CC(=O)OCC)cc(=O)n2cc(-c3ccc(Cl)cc3)nc12 [Compound 595]
0.01 to 0.1 µM	CCCCCn1c(N2C[C@@H](F)C[C@H]2C(=O)NC(C)(C)CC(=O)OCC)cc(=O)n2cc(-c3ccc(Cl)cc3)nc12 [Compound 596]
0.01 to 0.1 µM	CCCCCn1c(N2C[C@H](O)C[C@H]2C(=O)NC(C)(C)CC(=O)OCC)cc(=O)n2cc(-c3ccc(Cl)cc3)nc12 [Compound 597]
0.01 to 0.1 µM	CCCCCn1c(N2C[C@@H](O)C[C@H]2C(=O)NC(C)(C)CC(=O)OCC)cc(=O)n2cc(-c3ccc(Cl)cc3)nc12 [Compound 598]
0.01 to 0.1 µM	CCCCCn1c(N2CCC[C@H]2CC(=O)O)cc(=O)n2cc(-c3ccc(Cl)cc3)nc12 [Compound 599]
< 0.01 µM	CCCCCn1c(N2CCC[C@H](C(=O)O)C2)cc(=O)n2cc(-c3ccc(Cl)cc3)nc12 [Compound 600]
0.1 to 1 µM	CCCCCn1c(NCCC(=O)O)cc(=O)n2cc(-c3ccc(Cl)cc3)nc12 [Compound 601]
0.1 to 1 µM	CCCCCn1c(N(C)CC(=O)O)cc(=O)n2cc(-c3ccc(Cl)cc3)nc12 [Compound 602]
0.1 to 1 µM	CCCCCn1c(NCC(=O)NCC(=O)O)cc(=O)n2cc(-c3ccc(Cl)cc3)nc12 [Compound 603]
0.1 to 1 µM	CCCCCn1c(N2CCCC[C@H]2C(=O)O)cc(=O)n2cc(-c3ccc(Cl)cc3)nc12 [Compound 604]
0.1 to 1 µM	CCCCCn1c(N2CCC[C@@H]2CC(=O)O)cc(=O)n2cc(-c3ccc(Cl)cc3)nc12 [Compound 605]
> 1 µM	CCCCCn1c(N2CCC[C@@]2(C)C(=O)O)cc(=O)n2cc(-c3ccc(Cl)cc3)nc12 [Compound 606]
0.01 to 0.1 µM	CCCCCn1c(NCCCC(=O)O)cc(=O)n2cc(-c3ccc(Cl)cc3)nc12 [Compound 607]
0.01 to 0.1 µM	CCCCCn1c(N2CCC[C@@H](C(=O)O)C2)cc(=O)n2cc(-c3ccc(Cl)cc3)nc12 [Compound 608]
0.01 to 0.1 µM	CCCCCn1c(N(C)CC(=O)NCC(=O)O)cc(=O)n2cc(-c3ccc(Cl)cc3)nc12 [Compound 609]
> 1 µM	CCCCCn1c(NC2(C(=O)O)CC2)cc(=O)n2cc(-c3ccc(Cl)cc3)nc12 [Compound 610]
0.01 to 0.1 µM	CCCCCn1c(NCCCCC(=O)O)cc(=O)n2cc(-c3ccc(Cl)cc3)nc12 [Compound 611]
0.1 to 1 µM	CCCCCn1c(N2CCCC[C@@H]2C(=O)O)cc(=O)n2cc(-c3ccc(Cl)cc3)nc12 [Compound 612]
0.01 to 0.1 µM	CCCCCn1c(N[C@@H]2CCC[C@H]2C(=O)O)cc(=O)n2cc(-c3ccc(Cl)cc3)nc12 [Compound 613]
0.1 to 1 µM	CCCCCn1c(N2CCN(C(=O)OC(C)(C)C)C(C(=O)NCCC(=O)O)C2)cc(=O)n2cc(-c3ccc(Cl)cc3)nc12 (stereo not shown) [Compound 614]

IC50	SMILES
< 0.01 µM	CCCCCn1c(N2CCC[C@H]2CC(=O)NCCC(=O)O)cc(=O)n2cc(-c3ccc(Cl)cc3)nc12 [Compound 615]
< 0.01 µM	CCCCCn1c(N2CCC[C@H](C(=O)NCCC(=O)O)C2)cc(=O)n2cc(-c3ccc(Cl)cc3)nc12 [Compound 616]
0.1 to 1 µM	CCCCCn1c(NCCC(=O)NCCC(=O)O)cc(=O)n2cc(-c3ccc(Cl)cc3)nc12 [Compound 617]
0.01 to 0.1 µM	CCCCCn1c(N(C)CC(=O)NCCC(=O)O)cc(=O)n2cc(-c3ccc(Cl)cc3)nc12 [Compound 618]
0.01 to 0.1 µM	CCCCCn1c(N2CCN(C(=O)OC(C)(C)C)C[C@@H]2C(=O)NCCC(=O)O)cc(=O)n2cc(-c3ccc(Cl)cc3)nc12 [Compound 619]
< 0.01 µM	CCCCCn1c(N2CCN(C(=O)OC(C)(C)C)C[C@H]2C(=O)NCCC(=O)O)cc(=O)n2cc(-c3ccc(Cl)cc3)nc12 [Compound 620]
< 0.01 µM	CCCCCn1c(N2CCCC[C@H]2C(=O)NCCC(=O)O)cc(=O)n2cc(-c3ccc(Cl)cc3)nc12 [Compound 621]
0.1 to 1 µM	CCCCCn1c(N2CCC[C@@H]2CC(=O)NCCC(=O)O)cc(=O)n2cc(-c3ccc(Cl)cc3)nc12 [Compound 622]
0.1 to 1 µM	CCCCCn1c(N2CCC[C@@]2(C)C(=O)NCCC(=O)O)cc(=O)n2cc(-c3ccc(Cl)cc3)nc12 [Compound 623]
0.01 to 0.1 µM	CCCCCn1c(N2CCC[C@@H](C(=O)NCCC(=O)O)C2)cc(=O)n2cc(-c3ccc(Cl)cc3)nc12 [Compound 624]
0.1 to 1 µM	CCCCCn1c(NC2(C(=O)NCCC(=O)O)CC2)cc(=O)n2cc(-c3ccc(Cl)cc3)nc12 [Compound 625]
0.01 to 0.1 µM	CCCCCn1c(N2CCCC[C@@H]2C(=O)NCCC(=O)O)cc(=O)n2cc(-c3ccc(Cl)cc3)nc12 [Compound 626]
0.1 to 1 µM	CCCCCn1c(N2CCN(C(=O)OC(C)(C)C)C(C(=O)NCC(=O)O)C2)cc(=O)n2cc(-c3ccc(Cl)cc3)nc12 (stereo not shown) [Compound 627]
< 0.01 µM	CCCCCn1c(N2CCC[C@H]2CC(=O)NCC(=O)O)cc(=O)n2cc(-c3ccc(Cl)cc3)nc12 [Compound 628]
< 0.01 µM	CCCCCn1c(N2CCC[C@H](C(=O)NCC(=O)O)C2)cc(=O)n2cc(-c3ccc(Cl)cc3)nc12 [Compound 629]
0.1 to 1 µM	CCCCCn1c(NCCC(=O)NCC(=O)O)cc(=O)n2cc(-c3ccc(Cl)cc3)nc12 [Compound 630]
0.1 to 1 µM	CCCCCn1c(N2CCN(C(=O)OC(C)(C)C)C[C@@H]2C(=O)NCC(=O)O)cc(=O)n2cc(-c3ccc(Cl)cc3)nc12 [Compound 631]
0.01 to 0.1 µM	CCCCCn1c(N2CCN(C(=O)OC(C)(C)C)C[C@H]2C(=O)NCC(=O)O)cc(=O)n2cc(-c3ccc(Cl)cc3)nc12 [Compound 632]
0.01 to 0.1 µM	CCCCCn1c(N2CCCC[C@H]2C(=O)NCC(=O)O)cc(=O)n2cc(-c3ccc(Cl)cc3)nc12 [Compound 633]
0.1 to 1 µM	CCCCCn1c(N2CCC[C@@H]2CC(=O)NCC(=O)O)cc(=O)n2cc(-c3ccc(Cl)cc3)nc12 [Compound 634]
> 1 µM	CCCCCn1c(N2CCC[C@@]2(C)C(=O)NCC(=O)O)cc(=O)n2cc(-c3ccc(Cl)cc3)nc12 [Compound 635]
